Measured values: patent US8889391B1 (Cargill, Incorporated, priority 2006, dated 2014)
Like-named read-outs stand apart in the source and are kept apart here.

How the values were obtained:
[1] = biological target: BAAT-3-HP dehydrogenase system: Streptomyces avermitilis BAAT variant BAAT5-9 (P3H, S24T, D110N, F113L, A133T), SEQ ID NO: 19, coupled with P. putida 3-HP dehydrogenase (PpmmsB31), SEQ ID NO: 27 (Streptomyces avermitilis, UniProt Q82ER2, D110N/F113L/P3H/S24T); experiment: biochemical; conditions: pH 8, read-out: reduction of activity of the BAAT-3-HP dehydrogenase system
Method: The effect of acetate on the in vitro biological activity of BAAT enzymes in cell extracts was also measured using a coupled assay in which the malonyl semialdehyde product of the reaction catalyzed by BAAT was reduced by a 3-HP dehydrogenase. An extract of cells carrying the integrated BAAT5-9/PpmmsB31 was made by resuspending cells collected by centrifugation with Bugbuster (EMD/Novagen, Madison Wis.) as described by the manufacturer. […] The progress of the reaction was monitored as the decrease in A340 due to oxidation of the NADH. The effect of acetate or pyruvate was determined by adding up to 20 mM of either compound (as the neutral Na^+ salt).

O=CCC(=O)O = experiment: purified protein, by the assay type; conditions: other: purified enzyme; NADH is the preferred reductant
[2] = test system: BAAT (BAAT5-9) in E. coli 11303 Δpta ΔadhE ΔfrdABCD ΔldhA Δpan(C-D) ΔpoxB INT(BAAT5-9/PpmmsB31) carrying pCEC/SapanD; experiment: microbe, parasite or virus in culture; conditions: for inhibition at 20000 µM / inhibition at 100000 µM: Escherichia coli
Method: A culture of E. coli 11303 Δpta ΔadhE ΔfrdABCD ΔldhA Δpan(C-D) ΔpoxB INT(BAAT5-9/PpmmsB31) carrying the vector pCEC/SapanD was grown in LB media with chloramphenicol at 30° C. This culture was used to inoculate 20 mL modified Overnight Express media (Novagen) to an initial OD600 of 0.05 in a 125 mL flask. Modification to the media included the replacement of Solution 1 with glucose at a concentration of 0.1% and arabinose at 2%, and addition of 20 uM Ca^2+ pantothenate, 25 ug/mL chloramphenicol, 100 uM pyridoxine-HCl and 1 mM IPTG. […] Glucose biotransformation medium consisted of M9 salts, 100 mM MOPS pH 8, 1% glucose, 500 uM IPTG, and 50 uM pyridoxine-HCl.
For aerobic biotransformations, 900 uL of the resuspended culture was aliquoted to a 14 mL Falcon tube and the volume was brought to 1 mL with water and/or sodium acetate (pH 7). For anaerobic biotransformations, 1.35 mL of the resuspended culture was aliquoted to a 1.8 mL glass vial and the volume was brought to 1.5 mL with water and/or sodium acetate(pH 7). Final concentrations of sodium acetate added were 0, 20 mM, and 100 mM, and biotransformation incubations were at 30° C. with shaking at 225 rpm. […] Culture supernatants were acidified with 0.05 volumes of 90% formic acid, centrifuged, filtered, and analyzed for 3-HP production as described in Example 8.

[3] = substrate: O=CCC(=O)O; experiment: ydfG dehydrogenase kinetics, purified enzyme; type: biochemical, E. coli; conditions: other: purified enzyme; NADPH is the only cofactor used; 58.0 °C
Method: The ydfG gene was cloned into the pET28b vector (Novagen, Madison, Wis.) to allow purification and kinetic studies on purified protein. The primers used for this cloning had restriction sites added to allow cloning into NdeI and BamHI sites. […] (SEQ ID NO: 32) and […] (SEQ ID NO: 33). Fragment amplification was performed using Pfu DNA polymerase to minimize amplification errors, and used an annealing temperature of 58° C. A PCR product band of approximately 750 bp was gel-purified, digested with NdeI and BamHI, and ligated, using an NEB Quick Ligation method (New England BioLabs, Waverly Mass.), into pET28B vector that had been digested with the same enzymes. The ligation reaction was transformed into E. coli Electromax™ DH10B™ cells and plated on LB medium containing 25 μg/ml kanamycin. Plasmid DNA from a colony showing the correct insert size was sequenced and shown to be identical to the ydfG sequence from E. coli MG1655.

[4] = substrate: NCCC(=O)O; experiment: purified protein, by the assay type; type: biochemical, Streptomyces avermitilis; conditions: other: pH 8.0, 10 mM alpha-ketoglutarate, 25° C.
Method: Incubations were carried out at 25° C., and aliquots of 0.05 mL were removed at intervals of 30 seconds and added to 0.15 mL of reaction quench buffer (50% formic acid/50% 50 mM HEPPS pH 8). L-glutamate was determined by high-pressure ion exchange chromatography on an AMINOSep-511 column (Transgenomic) developed using mobile phases of pH 3.28 and pH 7.48 buffers from Pickering, followed by post-column derivatization with O-phthalaldehyde and fluorometric detection.

[5] = substrate: NCCC(=O)O; experiment: purified protein, by the assay type; conditions: other: pH 8.0, 10 mM alpha-ketoglutarate, 25° C.
[6] = read-out: reduction in 3-HP from beta-alanine
[7] = read-out: reduction in 3-HP from glucose

CC(=O)C(=O)O [pyruvate]
inhibition at 10000 µM [1]: ~50%

Pseudomonas aeruginosa 3-HP dehydrogenase (PammsB), SEQ ID NO: 21 (Pseudomonas aeruginosa PAO1)
Km (O=CCC(=O)O): 4.5 mM

CC(=O)O [acetate]
inhibition at 20000 µM [2, 6]: 22% | inhibition at 100000 µM [2, 6]: 47% | inhibition at 20000 µM [2, 7]: 28% | inhibition at 100000 µM [2, 7]: 52% | reduction in 3-HP ([2]; anaerobic conditions, acetate added (20 mM and 100 mM)): 8-29% | inhibition at 10000 µM [1]: ~50%

B1: E. coli ydfG protein, SEQ ID NO: 31 (Escherichia coli K-12) (protein)
chain: MIVLVTGATAGFGECITRRFIQQGHKVIATGRRQERLQELKDELGDNLYIAQLDVRNRAAIEEMLASLPAEWCNIDILVNNAGLALGMEPAHKASVEDWETMIDTNNKGLVYMTRAVLPGMVERNHGHIINIGSTAGSWPYAGGNVYGATKAFVRQFSLNLRTDLHGTAVRVTDIEPGLVGGTEFSNVRFKGDDGKAEKTYQNTVALTPEDVSEAVWWVSTLPAHVNINTLEMMPVTQSYAGLNVHRQ
Km [3]: 3.7 mM

B2: Streptomyces avermitilis BAAT variant BAAT3ML (P3H, S24T, F113L, A133T), SEQ ID NO: 17 (Streptomyces avermitilis MA-4680 = NBRC 14893; F113L/P3H/S24T) (protein)
chain: MTHQPNPQVGAAVKAADRAHVFHTWSAQELIDPLAVAGAEGSYFWDYDGRRYLDFTSGLVFTNIGYQHPKVVAAIQEQAASLTTFAPAFAVEARSEAARLIAERTPGDLDKILFTNGGADAIEHAVRMARIHTGRPKVLSAYRSYHGGTQQAVNITGDPRRWASDSASAGVVHFWAPYLYRSRFYAETEQQECERALEHLETTIAFEGPGTIAAIVLETVPGTAGIMVPPPGYLAGVRELCDKYGIVFVLDEVMAGFGRTGEWFAADLFDVTPDLMTFAKGVNSGYVPLGGVAISGKIAETFGKRAYPGGLTYSGHPLACAAAVATINVMAEEGVVENAANLGARVIEPGLRELAERHPSVGEVRGVGMFWALELVKDRETREPLVPYNAAGEANAPMAAFGAAAKANGLWPFINMNRTHVVPPCNVTEAEAKEGLAALDAALSVADEYTV
Km [4]: 21 mM

B3: Streptomyces avermitilis BAAT variant BAAT5-9 (P3H, S24T, D110N, F113L, A133T), SEQ ID NO: 19 (Streptomyces avermitilis MA-4680 = NBRC 14893; … (protein)
chain: MTHQPNPQVGAAVKAADRAHVFHTWSAQELIDPLAVAGAEGSYFWDYDGRRYLDFTSGLVFTNIGYQHPKVVAAIQEQAASLTTFAPAFAVEARSEAARLIAERTPGDLNKILFTNGGADAIEHAVRMARIHTGRPKVLSAYRSYHGGTQQAVNITGDPRRWASDSASAGVVHFWAPYLYRSRFYAETEQQECERALEHLETTIAFEGPGTIAAIVLETVPGTAGIMVPPPGYLAGVRELCDKYGIVFVLDEVMAGFGRTGEWFAADLFDVTPDLMTFAKGVNSGYVPLGGVAISGKIAETFGKRAYPGGLTYSGHPLACAAAVATINVMAEEGVVENAANLGARVIEPGLRELAERHPSVGEVRGVGMFWALELVKDRETREPLVPYNAAGEANAPMAAFGAAAKANGLWPFINMNRTHVVPPCNVTEAEAKEGLAALDAALSVADEYTV
Km [4]: 25 mM

B4: Streptomyces avermitilis beta-alanine/alpha-ketoglutarate aminotransferase (BAAT), wild type, SEQ ID NO: 4 (Streptomyces avermitilis MA-4680 = NBRC 14893) (protein)
chain: MTPQPNPQVGAAVKAADRAHVFHSWSAQELIDPLAVAGAEGSYFWDYDGRRYLDFTSGLVFTNIGYQHPKVVAAIQEQAASLTTFAPAFAVEARSEAARLIAERTPGDLDKIFFTNGGADAIEHAVRMARIHAGRPKVLSAYRSYHGGTQQAVNITGDPRRWASDSASAGVVHFWAPYLYRSRFYAETEQQECERALEHLETTIAFEGPGTIAAIVLETVPGTAGIMVPPPGYLAGVRELCDKYGIVFVLDEVMAGFGRTGEWFAADLFDVTPDLMTFAKGVNSGYVPLGGVAISGKIAETFGKRAYPGGLTYSGHPLACAAAVATINVMAEEGVVENAANLGARVIEPGLRELAERHPSVGEVRGVGMFWALELVKDRETREPLVPYNAAGEANAPMAAFGAAAKANGLWPFINMNRTHVVPPCNVTEAEAKEGLAALDAALSVADEYTV
Km [5]: 2.5 mM

B5: Streptomyces avermitilis BAAT variant BAAT1 (S24T), SEQ ID NO: 6 (Streptomyces avermitilis MA-4680 = NBRC 14893; S24T) (protein)
chain: MTPQPNPQVGAAVKAADRAHVFHTWSAQELIDPLAVAGAEGSYFWDYDGRRYLDFTSGLVFTNIGYQHPKVVAAIQEQAASLTTFAPAFAVEARSEAARLIAERTPGDLDKIFFTNGGADAIEHAVRMARIHAGRPKVLSAYRSYHGGTQQAVNITGDPRRWASDSASAGVVHFWAPYLYRSRFYAETEQQECERALEHLETTIAFEGPGTIAAIVLETVPGTAGIMVPPPGYLAGVRELCDKYGIVFVLDEVMAGFGRTGEWFAADLFDVTPDLMTFAKGVNSGYVPLGGVAISGKIAETFGKRAYPGGLTYSGHPLACAAAVATINVMAEEGVVENAANLGARVIEPGLRELAERHPSVGEVRGVGMFWALELVKDRETREPLVPYNAAGEANAPMAAFGAAAKANGLWPFINMNRTHVVPPCNVTEAEAKEGLAALDAALSVADEYTV
Km [4]: 7.3 mM

B6: Streptomyces avermitilis BAAT variant BAAT3 (S24T, F113L, A133T), SEQ ID NO: 12 (Streptomyces avermitilis MA-4680 = NBRC 14893; F113L/S24T) (protein)
chain: MTPQPNPQVGAAVKAADRAHVFHTWSAQELIDPLAVAGAEGSYFWDYDGRRYLDFTSGLVFTNIGYQHPKVVAAIQEQAASLTTFAPAFAVEARSEAARLIAERTPGDLDKILFTNGGADAIEHAVRMARIHTGRPKVLSAYRSYHGGTQQAVNITGDPRRWASDSASAGVVHFWAPYLYRSRFYAETEQQECERALEHLETTIAFEGPGTIAAIVLETVPGTAGIMVPPPGYLAGVRELCDKYGIVFVLDEVMAGFGRTGEWFAADLFDVTPDLMTFAKGVNSGYVPLGGVAISGKIAETFGKRAYPGGLTYSGHPLACAAAVATINVMAEEGVVENAANLGARVIEPGLRELAERHPSVGEVRGVGMFWALELVKDRETREPLVPYNAAGEANAPMAAFGAAAKANGLWPFINMNRTHVVPPCNVTEAEAKEGLAALDAALSVADEYTV
Km [4]: 14.7 mM
